In US20240408093A1, “HETEROBIFUNCTIONAL COMPOUNDS AND THEIR USE IN TREATING DISEASE” (HALDA THERAPEUTICS OPCO, INC., priority 2022, published 2024):
Read-outs that look alike come from different tables or passages of the source.

What was measured:
[1] = tested on: CCNK; assay: Payload release assay (DC50 readout), CCNK degradation in the presence of recombinant target protein; type: cell-based
Protocol: Exemplary compounds were tested for ability to cause degradation of CCNK or GSPT1 in the presence of recombinant target protein.
HEK293 LgBiT/GSPT1 HiBiT CRISPR Knock-in cells (Promega) were cultured in DMEM (Gibco 11995), supplemented with 10% Heat-inactivated FBS (Gibco A38400-01) and 1% Penicillin/Streptomycin (Gibco 15140-122) and 200 Vg/ml Hygromycin B (Gibco 10-687-010) at 37° C. with 5% CO2 in a humidified tissue culture incubator. HEK293 LgBiT/CCNK HiBiT cells (in-house, described above) were cultured in DMEM (Gibco 11995), supplemented with 10% Heat-inactivated FBS (Gibco A38400-01) and 1% Penicillin/Streptomycin (Gibco 15140-122) 200 Vg/ml Hygromycin B (Gibco 10-687-010), and 1 Vg/ml Puromycin Dihydrochloride (Thermo A1113803) at 37° C. with 5% CO2 in a humidified tissue culture incubator. Cells were seeded (1000 cells/well for HEK293 LgBiT/GSPT1 HiBiT cells or 3000 cells/well for HEK293 LgBiT/CCNK HiBiT cells) 384-well, tissue culture-treated white plates (Perkin Elmer 6007680) in 10 μL media lacking selection for 18-24 hours. Plates were spun at 300 g for 30 seconds and stored in the incubator overnight. After 24 hours, a 5 μL aliquot of recombinant target protein (final concentration of either 5 μM KRAS amino acids 1-169, C51S, C80L, C118S, G12C or 3 μM EGFR amino acids 696-1022 or 3 μM EGFR amino acids 696-1022, T790M, L858R) was added to wells, followed immediately by a 5 μL aliquot of 4× compound-containing medium supplemented with Endurazine Substrate (Promega N2570) was added in each well, at a final top concentration of 10 μM test compound and 0.5× Endurazine, with 4-fold dilutions, using DMSO alone as a negative control. Plates were then spun at 300×g for 3 minutes again and cultured at 37° C. with 5% CO2. After 6 hours the plate was read on Envision MultiMode Plate Reader 2105 (Perkin Elmer) to measure luminescence signal. Data was normalized to DMSO treated cell wells. A four-parameter non-linear regression curve fit was applied to dose-response data in Prism to determine the half maximal growth inhibitory concentration (GI50) of each compound.

[2] = molecular target: T1, CCNK (Homo sapiens, UniProt O75909+Q16531+Q9NYV4); assay: CCNK HiBiT degradation assay; type: cell-based; conditions: HEK293 LgBiT/CCNK HiBiT cells, 6 hours
T1 construct: expressed in transfected cells; host or cells: HEK293 LgBiT cells (Promega), lentiviral transduction, puromycin selection
T1 sequence (O75909 whole entry, species assumed): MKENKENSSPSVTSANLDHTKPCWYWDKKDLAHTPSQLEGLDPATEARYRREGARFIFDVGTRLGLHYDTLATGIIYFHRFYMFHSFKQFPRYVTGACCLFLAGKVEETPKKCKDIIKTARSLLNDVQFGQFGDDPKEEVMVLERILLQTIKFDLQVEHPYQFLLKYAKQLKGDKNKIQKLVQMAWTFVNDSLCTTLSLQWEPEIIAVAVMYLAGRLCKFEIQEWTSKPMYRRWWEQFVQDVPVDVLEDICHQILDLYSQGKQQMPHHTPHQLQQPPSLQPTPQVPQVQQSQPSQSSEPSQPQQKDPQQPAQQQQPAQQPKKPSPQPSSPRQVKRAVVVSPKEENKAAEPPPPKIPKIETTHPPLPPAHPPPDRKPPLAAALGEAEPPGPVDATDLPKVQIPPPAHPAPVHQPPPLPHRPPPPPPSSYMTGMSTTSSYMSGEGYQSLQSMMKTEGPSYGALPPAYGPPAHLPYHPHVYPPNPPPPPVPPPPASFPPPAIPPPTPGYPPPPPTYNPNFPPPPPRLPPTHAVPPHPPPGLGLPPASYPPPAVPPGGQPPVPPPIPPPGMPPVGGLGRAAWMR
T1 sequence (Q9NYV4 whole entry, species assumed): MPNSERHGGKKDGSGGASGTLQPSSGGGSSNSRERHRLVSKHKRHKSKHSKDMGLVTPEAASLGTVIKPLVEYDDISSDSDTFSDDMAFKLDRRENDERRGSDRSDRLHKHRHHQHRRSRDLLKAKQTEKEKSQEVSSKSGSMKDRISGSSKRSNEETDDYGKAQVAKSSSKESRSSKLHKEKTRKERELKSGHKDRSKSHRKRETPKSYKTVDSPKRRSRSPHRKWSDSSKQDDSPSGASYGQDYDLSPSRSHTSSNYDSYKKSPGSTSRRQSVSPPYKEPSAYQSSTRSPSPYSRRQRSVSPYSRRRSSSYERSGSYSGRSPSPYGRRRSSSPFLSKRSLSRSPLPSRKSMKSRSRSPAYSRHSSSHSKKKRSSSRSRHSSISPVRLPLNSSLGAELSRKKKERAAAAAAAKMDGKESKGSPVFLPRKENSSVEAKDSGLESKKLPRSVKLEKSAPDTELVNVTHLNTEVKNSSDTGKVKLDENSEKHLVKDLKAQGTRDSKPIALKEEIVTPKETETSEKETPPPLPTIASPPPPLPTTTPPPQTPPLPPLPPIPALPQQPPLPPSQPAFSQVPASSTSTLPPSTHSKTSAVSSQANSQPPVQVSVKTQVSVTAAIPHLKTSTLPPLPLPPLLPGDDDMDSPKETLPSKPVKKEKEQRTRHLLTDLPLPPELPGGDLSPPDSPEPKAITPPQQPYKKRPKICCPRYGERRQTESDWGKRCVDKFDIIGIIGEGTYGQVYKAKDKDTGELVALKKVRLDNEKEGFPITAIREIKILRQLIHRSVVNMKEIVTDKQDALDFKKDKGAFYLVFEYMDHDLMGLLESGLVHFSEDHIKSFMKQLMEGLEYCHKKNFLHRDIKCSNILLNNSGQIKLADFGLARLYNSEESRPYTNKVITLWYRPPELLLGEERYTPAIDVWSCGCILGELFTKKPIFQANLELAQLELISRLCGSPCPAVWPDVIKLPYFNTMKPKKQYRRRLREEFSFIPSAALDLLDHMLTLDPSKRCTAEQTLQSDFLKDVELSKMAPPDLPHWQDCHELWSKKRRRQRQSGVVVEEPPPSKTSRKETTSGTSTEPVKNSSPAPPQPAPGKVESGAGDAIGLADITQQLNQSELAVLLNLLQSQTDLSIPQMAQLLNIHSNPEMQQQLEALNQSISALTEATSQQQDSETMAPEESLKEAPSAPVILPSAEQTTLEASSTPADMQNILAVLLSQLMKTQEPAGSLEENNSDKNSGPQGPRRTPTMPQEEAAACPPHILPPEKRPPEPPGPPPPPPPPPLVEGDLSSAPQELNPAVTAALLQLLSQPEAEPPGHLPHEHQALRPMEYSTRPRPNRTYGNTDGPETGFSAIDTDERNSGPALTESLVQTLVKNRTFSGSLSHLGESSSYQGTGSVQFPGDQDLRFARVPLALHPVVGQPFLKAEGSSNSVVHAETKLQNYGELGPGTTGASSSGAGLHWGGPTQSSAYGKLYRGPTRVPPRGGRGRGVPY
T1 sequence (Q16531 whole entry, species assumed): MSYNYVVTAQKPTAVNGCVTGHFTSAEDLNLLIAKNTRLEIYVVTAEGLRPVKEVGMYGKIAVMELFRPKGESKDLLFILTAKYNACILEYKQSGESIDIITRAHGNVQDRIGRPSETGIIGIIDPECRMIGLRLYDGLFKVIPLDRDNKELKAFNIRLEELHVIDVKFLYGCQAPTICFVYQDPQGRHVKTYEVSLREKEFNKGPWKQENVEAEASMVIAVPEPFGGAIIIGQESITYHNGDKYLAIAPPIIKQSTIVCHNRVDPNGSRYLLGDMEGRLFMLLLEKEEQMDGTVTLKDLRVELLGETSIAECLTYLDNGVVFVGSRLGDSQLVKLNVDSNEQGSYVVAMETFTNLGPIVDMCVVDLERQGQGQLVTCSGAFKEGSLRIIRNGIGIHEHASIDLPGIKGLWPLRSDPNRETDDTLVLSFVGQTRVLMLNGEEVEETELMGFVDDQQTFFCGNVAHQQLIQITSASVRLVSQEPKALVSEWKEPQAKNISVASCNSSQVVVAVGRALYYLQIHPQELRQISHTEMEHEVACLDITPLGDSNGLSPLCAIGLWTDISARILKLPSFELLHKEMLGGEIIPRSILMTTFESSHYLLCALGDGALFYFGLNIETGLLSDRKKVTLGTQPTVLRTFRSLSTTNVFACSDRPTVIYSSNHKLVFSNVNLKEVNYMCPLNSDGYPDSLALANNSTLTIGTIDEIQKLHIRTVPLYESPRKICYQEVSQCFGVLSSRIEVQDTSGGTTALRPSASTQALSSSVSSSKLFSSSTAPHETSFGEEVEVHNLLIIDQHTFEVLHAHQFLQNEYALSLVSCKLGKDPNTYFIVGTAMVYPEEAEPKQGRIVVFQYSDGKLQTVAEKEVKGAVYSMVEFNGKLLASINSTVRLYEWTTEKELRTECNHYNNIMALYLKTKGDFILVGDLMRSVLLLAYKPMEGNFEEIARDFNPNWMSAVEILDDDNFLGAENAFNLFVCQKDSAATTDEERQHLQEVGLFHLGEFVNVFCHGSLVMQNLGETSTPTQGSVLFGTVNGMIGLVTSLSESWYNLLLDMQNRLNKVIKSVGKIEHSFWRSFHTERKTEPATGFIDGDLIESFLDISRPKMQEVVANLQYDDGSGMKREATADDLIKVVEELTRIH
Protocol: HEK293 LgBiT cells (Promega) were cultured in DMEM (Gibco 11995), supplemented with 10% Heat-inactivated FBS (Gibco A38400-01) and 1% Penicillin/Streptomycin (Gibco 15140-122) and 200 μg/ml Hygromycin B (Gibco 10-687-010) at 37° C. with 5% CO2 in a humidified tissue culture incubator. Cells were made stable for CCNK fused to a C-terminal HiBiT peptide by lentiviral transduction, followed by selection with 1 μg/ml Puromycin Dihydrochloride (Thermo A1113803). HEK293 LgBiT/CCNK HiBiT cells were seeded at 3000 cells/well in 384-well, tissue culture-treated white plates (Perkin Elmer 6007680) in 25 μL media lacking selection for 18-24 hours. Plates were spun at 300 g for 30 seconds and stored in the incubator overnight. After 24 hours, compounds were titrated in DMSO and added to media supplemented with Endurazine Substrate (Promega N2570). A 25 ul aliquot of 2× compound/endurazine in media were then added to the 384-well microplate with seeded cells. (Endurazine was used at a final concentration of 0.5×). The plate was spun at 300 g for 30 seconds and stored in the incubator. After 6 hours the plate was read on Envision MultiMode Plate Reader 2105 (Perkin Elmer) to measure luminescence signal. Data were plotted in Prism (Graphpad) and the concentration of compound at which 50% CCNK degradation occurs (DC50) was calculated.

[3] = 0 μM recombinant EGFR T790M L858R, II-series and V-4 (CCNK readout inferred), read-out: DC50 at 0 μM EGFR T790M L858R
[4] = 0 μM recombinant EGFR WT, II-series and V-4 (CCNK readout inferred), read-out: DC50 at 0 μM EGFR WT
[5] = 3 μM recombinant EGFR T790M L858R, II-series and V-4 (CCNK readout inferred), read-out: DC50 at 3 μM EGFR T790M L858R
[6] = 3 μM recombinant EGFR WT, II-series and V-4 (CCNK readout inferred), read-out: DC50 at 3 μM EGFR WT
[7] = 0 μM recombinant KRAS G12C, II-series compounds (CCNK readout inferred), read-out: DC50 at 0 μM KRAS G12C
[8] = 5 μM recombinant KRAS G12C, II-series compounds (CCNK readout inferred), read-out: DC50 at 5 μM KRAS G12C

Compound | DC50 [1, 3] [µM] | DC50 [1, 4] [µM] | DC50 [1, 5] [µM] | DC50 [1, 6] [µM] | DC50 [2] [µM] | DC50 [1, 7] [µM] | DC50 [1, 8] [µM]
C=C(COC(=O)n1c(CNc2nc(N3CCNCC3)nc3c(Br)cnn23)nc2cc(C)ccc21)C(=O)N1C[C@H](COc2nc(Nc3cnn(C)c3)nc3[nH]cc(Cl)c23)[C@@H](OC)C1 [Compound V-4] | < 0.25 | < 0.25 | < 0.25 | < 0.25 | < 0.25 |  | 
C=C(COC(=O)N1CCN(c2nc(NCc3nc4cc(C)ccc4[nH]3)n3ncc(Br)c3n2)CC1)C(=O)N1C[C@H](COc2nc(Nc3cnn(C)c3)nc3[nH]cc(Cl)c23)[C@@H](OC)C1 [II-185] | 0.25 to 5 | 0.25 to 5 | < 0.25 | < 0.25 | < 0.25 |  | 
C=C(COc1cc(-c2ccccn2)ccc1CNc1nc(N[C@H](CC)CO)nc2c1ncn2C(C)C)C(=O)N1CCN(c2nc(OC[C@@H]3CCCN3C)nc3c2CCN(c2cccc4cccc(Cl)c24)C3)C[C@@H]1CC#N [II-186] |  |  |  |  | 0.25 to 5 | 0.25 to 5 | < 0.25
C=C(CN1CCN(c2nc(NCc3nc4cc(C)ccc4[nH]3)n3ncc(Br)c3n2)CC1)C(=O)N1CCN(c2nc(OC[C@@H]3CCCN3C)nc3c2CCN(c2cccc4cccc(Cl)c24)C3)C[C@@H]1CC#N [II-190] |  |  |  |  | < 0.25 | < 0.25 | < 0.25

Further lines, with some results ahead:

DC50 [1, 3] [µM] | DC50 [1, 4] [µM] | DC50 [1, 5] [µM] | DC50 [1, 6] [µM] | DC50 [2] [µM] | Compound | DC50 [1, 7] [µM] | DC50 [1, 8] [µM]
< 0.25 | < 0.25 |  |  |  | C=C(COc1cc(-c2ccccn2)ccc1CNc1nc(N[C@H](CC)CO)nc2c1ncn2C(C)C)C(=O)N[C@@H]1CN(c2nc(Nc3cn(C)nc3OC)c3ncn(C)c3n2)C[C@H]1F [II-183] |  | 
< 0.25 | < 0.25 |  | > 10 | < 0.25 | C=C(CN1CCN(c2nc(NCc3nc4cc(C)ccc4[nH]3)n3ncc(Br)c3n2)CC1)C(=O)Nc1cc(Nc2nccc(-c3cn(C)c4ccccc34)n2)c(OC)cc1N(C)CCN(C)C [II-188] |  | 
0.25 to 5 | 5 to 10 |  |  |  | C=C(CN1CCN(c2nc(NCc3nc4cc(C)ccc4[nH]3)n3ncc(Br)c3n2)CC1)C(=O)Nc1cccc(-c2cccc3cnc(Nc4ccc(N5CCN(CCO)CC5)c(F)c4F)nc23)c1 [II-191] |  | 
